These results are taken from patent US7910622B2, “Modulation of bacterial quorum sensing with synthetic ligands” (Wisconsin Alumni Research Foundation, priority 2007, dated 2011).

Where “and” joins values, the source holds several entries; their conditions need not be identical. Equal entries are not always repeated. Where two headings read alike, the source gives them in different places.

Common to all, as to test: cell-based
Assay [1] addresses T1, TraR (Agrobacterium tumefaciens, UniProt P33905).
T1 construct: These strains lack their AHL synthase (I) genes, but retain their native R genes; endogenous in cells; host or cells: A. tumefaciens WCF47 (Δ-traI) with PtraI-lacZ plasmid pCF372
The following applies: for A. tumefaciens-TraR Activation [%]: 10 μM ligand; for A. tumefaciens-TraR Inhibition [%]: 10 μM synthetic ligand against 100 nM OOHL.

The target in assay [2] is T2, LasR (Pseudomonas aeruginosa, UniProt P25084).
T2 construct: expressed in transfected cells; host or cells: E. coli DH5α (pJN105L pSC11), arabinose-induced
T2 sequence (P25084 whole entry): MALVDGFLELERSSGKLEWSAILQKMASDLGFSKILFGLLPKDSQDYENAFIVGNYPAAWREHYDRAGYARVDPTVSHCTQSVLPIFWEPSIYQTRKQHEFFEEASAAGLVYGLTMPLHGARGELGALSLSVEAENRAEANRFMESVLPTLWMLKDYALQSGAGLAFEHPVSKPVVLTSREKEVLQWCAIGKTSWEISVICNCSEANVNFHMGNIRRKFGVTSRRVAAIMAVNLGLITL
The format is cell-based. The following applies: E. coli DH5α (pJN105L pSC11), normalized to OdDHL; for E. coli-LasR Inhibition [%]: 5 μM synthetic ligand against 7.5 nM OdDHL. The method in brief:
(§1)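 E. coli DH5α carrying pJN105L/pSC11 grown to OD600 0.3, LasR expression induced with arabinose (4 mg/mL), then incubated with AHLs at 37 °C to OD600 0.45. LasR activity read by β-galactosidase reporter assay; IC50/EC50 from sigmoidal dose-response fits.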

Assay [3] concerns the target T2, LasR. The settings on record: for E. coli-LasR Activation [%]: 5 μM ligand. The method in brief:
as §1

The target of assay [4] is T3, LuxR (Aliivibrio fischeri, UniProt P35327).
T3 construct: a Δ-luxI derivative of V. fischeri ES114, in which the native lux operon behaves as the bioluminescent reporter; endogenous in cells; host or cells: V. fischeri ES114 (Δ-luxI)
T3 sequence (P35327 whole entry): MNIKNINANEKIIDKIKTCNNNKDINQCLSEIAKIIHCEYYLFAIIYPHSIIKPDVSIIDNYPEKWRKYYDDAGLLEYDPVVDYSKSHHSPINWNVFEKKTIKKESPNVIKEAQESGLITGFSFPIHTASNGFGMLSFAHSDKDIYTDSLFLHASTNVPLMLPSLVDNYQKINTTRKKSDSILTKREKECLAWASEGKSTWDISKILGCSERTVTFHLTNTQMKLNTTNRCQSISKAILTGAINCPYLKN
The format is cell-based, Vibrio fischeri. The settings on record: for V. fischeri-LuxR Inhibition [%]: 5 μM synthetic ligand against 5 μM OHHL. The method in brief:
(§2)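 Whole-cell luminescence reporter in V. fischeri ES114 (WT, Δ-luxI or Δ-luxR) or E. coli, overnight cultures diluted 1:10 and grown with compound at RT (E. coli 30° C) to OD600 0.35-0.4 (4-6 h). Luminescence normalized to cell density, triplicates; EC50/IC50 from sigmoidal fit.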

The target in assay [5] is T3, LuxR. Further details: species or system Vibrio fischeri. The following applies: V. fischeri ES114 (Δ-luxI), normalized to OHHL; for V. fischeri-LuxR Activation [%]: 200 μM ligand. The method in brief:
as §2

Setting [6] is: A. tumefaciens WCF47 (pCF372), normalized to OOHL.
Setting [7] is: determined against 100 nM OOHL, read-out: TraR IC50.
Where [8] appears, read: E. coli DH5α (pJN105L pSC11), normalized to OdDHL.
[9] abbreviates: V. fischeri ES114 (Δ-luxI), normalized to OHHL.

T1 sequence (P33905 whole entry): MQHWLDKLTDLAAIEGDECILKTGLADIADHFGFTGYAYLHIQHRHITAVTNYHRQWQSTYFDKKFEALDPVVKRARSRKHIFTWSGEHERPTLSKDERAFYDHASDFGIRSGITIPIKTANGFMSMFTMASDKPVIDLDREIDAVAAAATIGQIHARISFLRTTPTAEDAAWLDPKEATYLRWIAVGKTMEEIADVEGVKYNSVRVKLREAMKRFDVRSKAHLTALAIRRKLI

As a reminder, the IC50 is the concentration that gives 50% inhibition. As to `CC(=O)c1ccc(OCC(=O)N[C@H]2CCOC2=O)cc1C` [D17], in assay [1] (setting [6]), the “A. tumefaciens-TraR Activation [%]” value amounted to 1% and the “A. tumefaciens-TraR Inhibition [%]” value stood at 92%. Moreover, the IC50 in assay [1] (setting [7]) is 1.4 µM. For the same compound, the “E. coli-LasR Inhibition [%]” value in assay [2] was 26%. Besides, the “E. coli-LasR Activation [%]” value in assay [3] (setting [8]) came out at 0%. In assay [4] (setting [9]), the “V. fischeri-LuxR Inhibition [%]” value was 50%. Besides, in assay [5], the “V. fischeri-LuxR Activation [%]” value worked out at 2%.
The EC50 is the midpoint of the concentration-response curve. Regarding `COc1ccccc1C1CCN(c2ccc(C=CC(=O)NC3CCOC3=O)cc2[N+](=O)[O-])CC1` (stereo not drawn) [D18], in assay [1] (setting [6]), the “A. tumefaciens-TraR Activation [%]” value was 0% and the “A. tumefaciens-TraR Inhibition [%]” value is recorded as 16%. For the same compound, the “E. coli-LasR Inhibition [%]” value in assay [2] was determined as 34%. In addition, in assay [3] (setting [8]), the “E. coli-LasR Activation [%]” value came out at 32%. Also, the “LasR: maximum induction value achievable (value in parentheses)” value in assay [3] (at 200 μM ligand, relative to natural ligand) came out at 32%. In addition, in assay [3] (read-out: LasR EC50), the EC50 came out at 0.47 µM. Moreover, in assay [4] (setting [9]), the “V. fischeri-LuxR Inhibition [%]” value is reported as 19%. In assay [5], the “V. fischeri-LuxR Activation [%]” value was 2%.
Take `O=C(CCC(=O)OC(C(=O)c1ccccc1)c1ccccc1)N[C@H]1CCOC1=O` (stereo partly drawn) [D19]: in assay [1] (setting [6]), the “A. tumefaciens-TraR Activation [%]” value was found to be 0% and the “A. tumefaciens-TraR Inhibition [%]” value is on record as 11%. Further, the “E. coli-LasR Inhibition [%]” value in assay [2] is 17%. Also, the “E. coli-LasR Activation [%]” value in assay [3] (setting [8]) was 7%. The “V. fischeri-LuxR Inhibition [%]” value in assay [4] (setting [9]) was 30%. Also, the “V. fischeri-LuxR Activation [%]” value in assay [5] came to 1%.
With `O=C(NC1CCOC1=O)c1ccc(N=Nc2ccccc2)cc1` (stereo not drawn) [D20], in assay [1] (setting [6]), the “A. tumefaciens-TraR Activation [%]” value is given as 0% and the “A. tumefaciens-TraR Inhibition [%]” value was 4%. The “E. coli-LasR Inhibition [%]” value in assay [2] is 12%. For the same compound, the “E. coli-LasR Activation [%]” value in assay [3] (setting [8]) stood at 0%. Also, the “V. fischeri-LuxR Inhibition [%]” value in assay [4] (setting [9]) stood at 46%. The “V. fischeri-LuxR Activation [%]” value in assay [5] came out at 2%.
As usually defined, the inhibition is the percentage by which the read-out fell short of the control. As for `CCCCCCC(=O)NC1CCOC1=O` (stereo not drawn) [compound 4], the IC50 was determined as 0.69 µM in assay [1] and 1.36 µM in assay [4] (LuxR IC50, determined against 5 μM OHHL). For the same compound, the activation at 10 µM in assay [1] (read-out: A. tumefaciens-TraR Activation [%]) is 4%. Also, the inhibition at 10 µM in assay [1] (read-out: A. tumefaciens-TraR Inhibition [%], 10 μM synthetic ligand against 100 nM OOHL, A. tumefaciens WCF47 (pCF372), normalized to OOHL) is about 90%. Also, the inhibition at 5 µM is about 25% in assay [2] (read-out: E. coli-LasR Inhibition [%], 5 μM synthetic ligand against 7.5 nM OdDHL) and about 76% in assay [4] (read-out: V. fischeri-LuxR Inhibition [%], 5 μM synthetic ligand against 5 μM OHHL, V. fischeri ES114 (Δ-luxI), normalized to OHHL). Moreover, the activation at 5 µM in assay [3] (read-out: E. coli-LasR Activation [%], 5 μM ligand, E. coli DH5α (pJN105L pSC11), normalized to OdDHL) amounted to 0%. In addition, the activation at 200 µM in assay [5] (read-out: V. fischeri-LuxR Activation [%], 200 μM ligand) is about 25%.
Turning to D-enantiomer of OOHL [A24], in assay [1] (setting [6]), the “A. tumefaciens-TraR Activation [%]” value is listed as 4% and the “A. tumefaciens-TraR Inhibition [%]” value came out at 6%. Further, the “E. coli-LasR Inhibition [%]” value in assay [2] amounted to 16%. The “E. coli-LasR Activation [%]” value in assay [3] (setting [8]) is listed as 0%. The “V. fischeri-LuxR Inhibition [%]” value in assay [4] (setting [9]) is reported as 7%. Besides, the “V. fischeri-LuxR Activation [%]” value in assay [5] is 2%.
Turning to “N-(phenylbutanoyl)-L-homoserine lactone [compound 6, reference compound]”, in assay [1] (setting [6]), the “A. tumefaciens-TraR Activation [%]” value was 2% and the “A. tumefaciens-TraR Inhibition [%]” value amounted to 93%. The IC50 in assay [1] (setting [7]) was 1.12 µM. Further, the “E. coli-LasR Inhibition [%]” value in assay [2] is ~25% and ~20%. Moreover, in assay [3] (setting [8]), the “E. coli-LasR Activation [%]” value came to 3%. Also, the “V. fischeri-LuxR Inhibition [%]” value in assay [4] (setting [9]) came out at 70%. Besides, the “V. fischeri-LuxR Activation [%]” value in assay [5] was 3%.
